In patent publication US20230321042A1, “COMBINATION THERAPY” (PFIZER INC., priority 2020, published 2023):

How the values were obtained:
HCC1428 = experiment: 7-day anti-proliferation assay (CyQuant Direct) in HCC1428; type: cell-based; settings: Homo sapiens, 168 h; HCC1428, 7-day
Experimental: (§1) Functional effects of test compounds were measured in a 7-day anti-proliferation assay in three ER+ breast cancer cell lines. Cells were seeded in 96-well plates and allowed to adhere overnight prior to compound treatment.

T47D = experiment: 7-day anti-proliferation assay (CyQuant Direct) in T47D; type: cell-based; settings: Homo sapiens, 168 h
Experimental: as §1

CDK6/Cyclin D3 = CDK6/Cyclin D3 (Homo sapiens (Human), UniProt Q00534); experiment: CDK6/Cyclin D3 mobility shift assay; type: biochemical; settings: 3.5 mM ATP
CDK6/Cyclin D3, sequence (Q00534 whole entry): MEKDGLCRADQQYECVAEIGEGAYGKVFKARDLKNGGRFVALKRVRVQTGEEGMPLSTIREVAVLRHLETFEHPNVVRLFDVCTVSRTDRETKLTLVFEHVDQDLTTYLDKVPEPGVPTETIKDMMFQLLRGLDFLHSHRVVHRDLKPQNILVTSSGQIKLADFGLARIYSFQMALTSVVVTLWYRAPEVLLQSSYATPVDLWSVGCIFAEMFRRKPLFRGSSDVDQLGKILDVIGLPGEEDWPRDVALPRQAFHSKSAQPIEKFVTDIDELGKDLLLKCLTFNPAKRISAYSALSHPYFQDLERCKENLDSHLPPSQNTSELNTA
CDK6/Cyclin D3, sequence (P30281 whole entry partner): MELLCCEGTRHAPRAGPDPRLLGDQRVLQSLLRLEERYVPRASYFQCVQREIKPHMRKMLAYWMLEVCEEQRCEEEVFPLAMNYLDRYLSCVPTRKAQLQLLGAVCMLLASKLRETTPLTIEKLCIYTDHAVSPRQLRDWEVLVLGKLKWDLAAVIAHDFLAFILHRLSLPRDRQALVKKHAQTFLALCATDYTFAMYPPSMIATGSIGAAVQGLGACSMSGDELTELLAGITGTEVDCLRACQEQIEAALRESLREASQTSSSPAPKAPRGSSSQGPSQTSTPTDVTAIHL
Experimental: The mobility shift assay electrophoretically separates the fluorescently labelled peptides (substrate and phosphorylated product) following the kinase reaction. […] Typical reaction solutions contained 2% DMSO (± inhibitor), 2% glycerol, 10 mM MgCl2, 1 mM DTT, 3.5 mM ATP, 0.005% Tween 20 (TW-20), 3 µM 5-FAM-Dyrktide, 4 nM (active sites) activated CDK6/Cyclin D3 in 40 mM HEPES buffer at pH 7.5.
The reaction was stopped after 95 minutes by the addition of 50 µL of 30 mM EDTA. Ki determinations were made from a plot of the fractional velocity as a function of inhibitor concentration fit to the Morrison equation with the enzyme concentration as a variable.

[1] = In vivo study in MCF-7 breast cancer xenograft; settings: female, mouse, po, BID, MCF7 xenograft model, NSG mice, read-out: maximum tolerated dose level
Experimental: The MCF7 model was established by implanting passage 0 tumor fragments into recipient mice. To establish the MCF7 donor mice, tumor cells (5 × 10^6 cells/mouse with 50% Cultrex® Basement Membrane Matrix) were subcutaneously implanted in female NSG mice. Once reaching a range of 700 to 800 mm^3, donor tumors were subsequently transplanted into secondary recipient mice for study expansion. […] TGI was assessed on Day 21 post first dose (or Day 42 post tumor fragment implant). […] In the 150 mpk combination group, 50% of mice were found dead or were euthanized by the end of 21 days due to severe anemia.

MCF7 = experiment: 7-day anti-proliferation assay (CyQuant Direct) in MCF7; type: cell-based; settings: Homo sapiens, 168 h; MCF7, 7-day
Experimental: as §1

CDK4/Cyclin D1 = CDK4/Cyclin D1 (Homo sapiens (Human), UniProt P11802); experiment: CDK4/Cyclin D1 mobility shift assay; type: biochemical; settings: 3.5 mM ATP
CDK4/Cyclin D1, sequence (P11802 whole entry): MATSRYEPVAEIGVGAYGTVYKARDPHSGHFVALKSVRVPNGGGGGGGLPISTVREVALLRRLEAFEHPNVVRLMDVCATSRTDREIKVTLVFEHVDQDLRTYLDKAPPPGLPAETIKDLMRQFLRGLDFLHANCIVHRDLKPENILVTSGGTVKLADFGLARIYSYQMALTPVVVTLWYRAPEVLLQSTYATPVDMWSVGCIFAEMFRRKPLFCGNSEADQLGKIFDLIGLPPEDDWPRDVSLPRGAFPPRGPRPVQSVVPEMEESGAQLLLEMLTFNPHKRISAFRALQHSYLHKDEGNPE
CDK4/Cyclin D1, sequence (P24385 whole entry partner): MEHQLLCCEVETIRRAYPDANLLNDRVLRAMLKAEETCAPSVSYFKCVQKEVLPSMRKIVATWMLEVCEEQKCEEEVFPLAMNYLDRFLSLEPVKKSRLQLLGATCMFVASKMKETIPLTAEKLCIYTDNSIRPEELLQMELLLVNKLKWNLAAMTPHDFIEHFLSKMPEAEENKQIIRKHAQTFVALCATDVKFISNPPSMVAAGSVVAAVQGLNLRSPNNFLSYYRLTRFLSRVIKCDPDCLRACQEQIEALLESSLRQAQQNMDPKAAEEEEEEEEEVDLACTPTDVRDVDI
Experimental: The purpose CDK4/Cyclin D1 assay is to evaluate the inhibition (% inhibition, Kiapp and Ki values) in the presence of small molecule inhibitors by using a fluorescence based microfluidic mobility shift assay. […] The mobility shift assay electrophoretically separates the fluorescently labelled peptides (substrate and phosphorylated product) following the kinase reaction. Both substrate and product are measured and the ratio of these values is used to generate % conversion of substrate to product by the LabChip EZ Reader. […] The reaction was stopped after 195 minutes by the addition of 50 µL of 30 mM EDTA. Ki determinations were made from a plot of the fractional velocity as a function of inhibitor concentration fit to the Morrison equation with the enzyme concentration as a variable.

| SMILES | EC50 (HCC1428) [nM] | EC50 (T47D) [nM] | Ki (CDK6/Cyclin D3) [µM] | MTD at 21 days [1] [mg/kg] | EC50 (MCF7) [nM] | Ki (CDK4/Cyclin D1) [µM] |
| --- | --- | --- | --- | --- | --- | --- |
| COCc1cc(C(=O)Nc2cc([C@H]3CC[C@@H](OC(=O)NC(C)C)C3)[nH]n2)n(C)n1 [COMPOUND A, (1R,3S)-3-[3-({[3-(methoxymethyl)-1-methyl-1H-pyrazol-5-yl]carbonyl}amino)-1H-pyrazol-5-yl]cyclopentyl propan-2-ylcarbamate] | > 1000 | 403 | 0.465 | 150 | 386 | – |
| CC(=O)c1c(C)c2cnc(Nc3ccc(N4CCNCC4)cn3)nc2n(C2CCCC2)c1=O [Palbociclib, 6-acetyl-8-cyclopentyl-5-methyl-2-(5-piperazin-1-yl-pyridin-2-ylamino)-8H-pyrido[2,3-d]pyrimidin-7-one, reference compound] | 355 | 87 | – | – | 79 | – |
| CCCNC(=O)O[C@@H]1CC[C@H](c2cc(NC(=O)Cc3ccnc(OC)c3)n[nH]2)C1 [COMPOUND C, (1R,3S)-3-(3-{[(2-methoxypyridin-4-yl)acetyl]amino}-1H-pyrazol-5-yl)cyclopentyl propylcarbamate] | 710 | 443 | 0.215 | – | 336 | 0.149 |
| CC[C@H](C)NC(=O)O[C@@H]1CC[C@H](c2cc(NC(=O)Cc3ccccc3S(C)(=O)=O)n[nH]2)C1 [COMPOUND B, (1R,3S)-3-[3-({[2-(methylsulfonyl)phenyl]acetyl}amino)-1H-pyrazol-5-yl]cyclopentyl (2S)-butan-2-ylcarbamate] | 790 | 220 | 0.254 | – | 190 | 0.107 |
